# Values of other authors in PMC3983394 (Journal of Medicinal Chemistry, 2014).
# Legend:
# mice [1] = system: mice
# mice [2] = system: mice; remark: listed apart in the source
# mice [3] = system: mice; remark: listed apart in the source
# mice [4] = system: mice; remark: listed apart in the source
smiles,measurement,setting,value
CN1CCC[C@H]1c1cccnc1 [nicotine],ED50 hypothermia,mice [1],1.0 (0.6–2.1) mg/kg
same,ED50 hot-plate,mice [2],0.65 (0.25–0.85) mg/kg
same,ED50 spontaneous activity,mice [3],0.5 (0.15–0.78) mg/kg
same,ED50 tail-flick,mice [4],1.3 (0.5–1.8) mg/kg
